# Source: patent US7763615B2, “Ecteinascidin analogs for use as antitumour agents” (priority 2001, dated 2010)
# Columns and labels:
# [1] = s9, 60 min, 1 μM
# Method: The metabolic stability was determined used human liver S9 homogenate that including both microsomal and cytosolic enzyme activities. The test compound was diluted in methanol (0.625%) and acetonitrile (0.625%) at the concentration 1 μM and incubated in the human liver pool (protein=1 mg/mL) during 60 min at 37° C. Peak areas corresponding to all analytes (metabolic products) were determined by HPLC-MS/MS. Areas were recorded and ratios of peak areas of analytes to that of internal standard for each analyte were determined. The ratio of precursor compound remaining after 60 minutes and the amount remaining at time zero, expressed as percent, are reported as metabolic stability. Higher values mean higher metabolic stability.
# [2] = tested on: SW-620; test: cells; format: cell-based; conditions: Homo sapiens
# Summary of the method: (§1)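 Human tumour cells seeded at 5×10^3 per well in RPMI 1640 10% FBS, attached 18 h, then exposed 48 h to samples from 10 to 10^−8 μg/ml in DMSO/EtOH/PBS. Growth measured by SRB staining after TCA fixation, OD 490 nm, triplicate wells; GI, TGI and LC derived.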
# [3] = tested on: HT29; test: cells; format: cell-based; conditions: Homo sapiens, HT-29, 48 h
# Summary of the method: as §1
# [4] = tested on: MEL-28; test: cells; format: cell-based; conditions: Homo sapiens, SK-MEL-28, 48 h
# Summary of the method: as §1
# [5] = tested on: A498; test: cells; format: cell-based; conditions: Homo sapiens
# Summary of the method: as §1
# [6] = tested on: MB231; test: cells; format: cell-based; conditions: Homo sapiens
# Summary of the method: as §1
# [7] = tested on: MCF; test: cells; format: cell-based; conditions: Homo sapiens
# Summary of the method: as §1
# [8] = tested on: A549; test: cells; format: cell-based; conditions: Homo sapiens, A549, 48 h
# Summary of the method: as §1
# [9] = tested on: DU145; test: cells; format: cell-based; conditions: Homo sapiens, DU-145, 48 h
# Summary of the method: as §1
# [10] = tested on: NRK-52E, normal rat kidney cells; conditions: 24 h
# [11] = tested on: FDC-P1, normal mouse myelogeous stem cells; conditions: 24 h
# [12] = molecular target: CYP3A4 (Homo sapiens, UniProt P08684); test: in vitro; conditions: CYP3A4 (% inhibition)
# Chain of CYP3A4 (P08684 whole entry): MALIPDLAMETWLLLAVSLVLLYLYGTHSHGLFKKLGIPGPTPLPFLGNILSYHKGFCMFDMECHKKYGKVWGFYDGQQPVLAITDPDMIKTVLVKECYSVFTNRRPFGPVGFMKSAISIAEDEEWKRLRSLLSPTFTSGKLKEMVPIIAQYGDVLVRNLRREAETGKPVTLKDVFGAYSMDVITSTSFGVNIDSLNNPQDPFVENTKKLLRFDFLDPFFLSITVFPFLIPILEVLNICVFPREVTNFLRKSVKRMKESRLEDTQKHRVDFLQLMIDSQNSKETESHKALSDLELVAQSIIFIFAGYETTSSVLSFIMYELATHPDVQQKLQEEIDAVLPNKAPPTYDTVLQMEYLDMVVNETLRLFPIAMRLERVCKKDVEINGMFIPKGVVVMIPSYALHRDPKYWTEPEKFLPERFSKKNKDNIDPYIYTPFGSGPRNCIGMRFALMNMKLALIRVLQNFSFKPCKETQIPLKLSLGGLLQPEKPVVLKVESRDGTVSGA
# [13] = tested on: AML-12, normal mouse liver cells; conditions: 24 h
# [14] = tested on: L8, normal rat skeletal muscle cells; conditions: 24 h
# [15] = tested on: H9c2 (2-1), normal rat cardiac muscle cells; conditions: 24 h
# Method: In order to assess the cytotoxicity of the drugs to normal cells, we used 96 well plates plated at a density of 5000 cells per well (except for the FDC-P1 which were plated at 12,000 cells per well) with normal cell lines (ATCC, Table 1) maintained as per the directions of the ATCC: AML-12, normal mouse liver cells; NRK-52E, normal rat kidney cells; L8, normal rat skeletal muscle cells; FDC-P1, normal mouse myelogeous stem cells; and H9c2 (2-1), normal rat cardiac muscle cells. The cells in each plate were permitted to settle overnight before adding the test drug.
# To each well (100 μl medium) 10 μl of drug in media was added at varying concentrations (1×10-10-0.01 mg/ml final concentration) and further incubated overnight at 37° C. with 5% CO2. After 24 h the following assays were performed. All experiments were repeated at least 3 times and were assayed in duplicate.
# MTS assay (CellTiter 96 aqueous) was performed according to the manufacturer's (Promega) directions (for all cell types). Cell viability (mitochondrial activity) is determined via enzymatic conversion of the formazan substrate.
# [16] = molecular target: CYP2D6 (Homo sapiens, UniProt P10635); test: in vitro; conditions: CYP2D6 (% inhibition)
# Chain of CYP2D6 (P10635 whole entry): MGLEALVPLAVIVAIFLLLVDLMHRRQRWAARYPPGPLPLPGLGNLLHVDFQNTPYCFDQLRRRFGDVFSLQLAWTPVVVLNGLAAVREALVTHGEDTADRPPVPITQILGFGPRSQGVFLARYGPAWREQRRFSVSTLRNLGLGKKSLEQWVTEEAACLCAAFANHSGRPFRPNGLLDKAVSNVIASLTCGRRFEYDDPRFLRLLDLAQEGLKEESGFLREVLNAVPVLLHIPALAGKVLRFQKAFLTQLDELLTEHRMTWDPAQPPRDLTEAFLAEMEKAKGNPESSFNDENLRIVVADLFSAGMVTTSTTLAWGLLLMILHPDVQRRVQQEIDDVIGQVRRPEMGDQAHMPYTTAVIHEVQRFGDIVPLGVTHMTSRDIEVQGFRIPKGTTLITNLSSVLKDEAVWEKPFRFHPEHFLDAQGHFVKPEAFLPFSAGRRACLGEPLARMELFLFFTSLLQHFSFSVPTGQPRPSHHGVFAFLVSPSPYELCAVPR
# [17] = tested on: (HEPG2); conditions: human, 24 h, 30 μM
# Method: The toxic potential of compounds was investigated in vitro using primary human hepatocytes (HEPG2). The compounds were tested at 30 μM in duplicate with a final DMSO concentration of 1%. After incubation during 24 h at 37° C. the cell viability was determined by the conversion of oxided alarmarBlue (resazurin) to reduced alarmarBlue (resorufin). Chlorpromazine was used as reference compound. Results are expressed as a percent of inhibition of control values.
# [18] = physchem; conditions: pH 7.4, aqueous buffer, Solubility Dulbecco's PBS pH 7.4
# [19] = physchem; conditions: pH 7.4, log D n-Octanol-Dulbecco's PBS pH 7.4
# Method: The measurement of partition coefficient was evaluated based on a miniaturized shake-flask procedure. Buffer (Dulbecco's PBS, pH 7.40) was used as the aqueous phase. The tested compound was dissolved in DMSO, at the concentration of 100 μM. The final DMSO concentration (1%.) during the octanol-buffer partitioning are very low to avoid bias on the partitioning. The amount of compound in the buffer phase was determined by HPLC with photodiode array detection after an equilibration phase of 60 min. The amount of compound in the octanol phase is calculated by subtraction of the amount of compound in buffer from the total amount of compound, which is determined from a calibration sample.
# Log D is calculated as the Log10 of the amount of compound in the octanol phase divided by the amount of compound in the buffer phase. The effective range of the log D microassay is approximately −0.5 to +4.5.
compound,measurement,setting,value
COc1c(C)cc2c(c1O)[C@@H]1C3[C@@H]4SC[C@]5(NCCc6c5[nH]c5c(OCc7ccccc7)cccc65)C(=O)COC[C@@H](c5c6c(c(C)c(OC(C)=O)c54)OCO6)N3[C@@H](O)[C@H](C2)N1C (some centres unmarked) [Compound 28],Human Liver S9 Metabolic Stability (% remaining),[1],33 % remaining
same,CC50,"[2]; SW-620, 48 h, read-out: LC50",92.9 nM
same,IC (TGI),"[2]; SW-620, 48 hours exposure, SRB",23.2 nM
same,GI50,"[2]; SW-620, 48 hours exposure, SRB, read-out: GI50",6.97 nM
same,GI50,"[3]; HT29, 48 hours exposure, SRB",11.6 nM
same,IC (TGI),"[3]; HT29, 48 hours exposure, SRB",69.7 nM
same,CC50,"[3]; read-out: LC50, HT29, 48 hours exposure, SRB",105 nM
same,GI50,"[4]; MEL-28, 48 hours exposure, SRB",23.2 nM
same,IC (TGI),"[4]; MEL-28, 48 hours exposure, SRB",34.8 nM
same,CC50,"[4]; read-out: LC50, MEL-28, 48 hours exposure, SRB",81.3 nM
same,CC50,"[5]; A498, 48 h, read-out: LC50",58.1 nM
same,GI50,"[5]; A498, 48 hours exposure, SRB",3.48 nM
same,IC (TGI),"[5]; A498, 48 hours exposure, SRB",11.6 nM
same,CC50,"[6]; 48 h, read-out: LC50",116 nM
same,IC (TGI),"[6]; 48 h, read-out: TGI",9.29 nM
same,GI50,"[6]; MB231, 48 hours exposure, SRB",3.48 nM
same,CC50,"[7]; 48 h, read-out: LC50",116 nM
same,GI50,"[7]; MCF, 48 hours exposure, SRB",5.81 nM
same,IC (TGI),"[7]; MCF, 48 hours exposure, SRB, read-out: TGI",23.2 nM
same,GI50,"[8]; A549, 48 hours exposure, SRB, read-out: GI50",3.48 nM
same,IC (TGI),"[8]; A549, 48 hours exposure, SRB, read-out: TGI",46.5 nM
same,CC50,"[8]; read-out: LC50, A549, 48 hours exposure, SRB",34.8 nM
same,GI50,"[9]; DU145, 48 hours exposure, SRB",2.32 nM
same,IC (TGI),"[9]; DU145, 48 hours exposure, SRB",3.48 nM
same,CC50,"[9]; read-out: LC50, DU145, 48 hours exposure, SRB",9.29 nM
same,Kidney,[10],8.37E−08
same,Myelo,[11],2.00E−07
same,"inhibition at 30 min, 10 µM",[12],79%
same,Liver,[13],1.42E−07
same,Skeletal,[14],1.45E−07
same,Heart,[15],1.84E−07
same,"inhibition at 450 min, 10 µM",[16],34%
same,Cell Viability (% inhibition),[17],17 % inhibition
same,solubility,[18],< 1 µM
same,logD at 60 min,[19],> 4.6
